The subject of series [1] is mice with laser-induced choroidal NV. Kind of series: Laser-induced choroidal NV (CNV) mouse model. It is filed as in vivo, mouse (C57BL/6). Conditions: 14 days, vs vehicle-injected fellow eyes. How it is done: Pathogen-free C57BL/6 mice (Charles River, Wilmington, Mass.) were treated in accordance with the Association for Research in Vision and Ophthalmology Statement for the Use of Animals in Ophthalmic and Vision Research and the guidelines of the Johns Hopkins University Animal Care and Use Committee.
Choroidal NV was induced by laser photocoagulation-induced rupture of Bruch's membrane as previously described (Tobe, T. et al., Am. J. Pathol. 135(5): 1641-1646(1998)). […] Laser photocoagulation (75 μm spot size, 0.1 sec duration, 120 mW) was performed in the 9, 12, and 3 o'clock positions of the posterior pole of each eye with the slit lamp delivery system of an OcuLight GL diode laser (Iridex, Mountain View, Calif.) and a handheld cover slip as a contact lens to view the retina. Production of a bubble at the time of laser, which indicates rupture of Bruch's membrane, is an important factor in obtaining CNV; therefore, only burns in which a bubble was produced were included in the study.
Immediately after laser-induced rupture of Bruch's membrane, mice were randomized to various treatment groups for intraocular injections. Intravitreal injections were done under a dissecting microscope with a Harvard Pump Microinjection System and pulled glass micropipettes.
At 1, 4, 7, and 14 days after injection, fundus photographs were taken with a Micron III® camera (Phoenix Research Laboratories Inc., Pleasanton, Calif.). After 14 days, the mice were perfused with 1 ml of PBS containing 25 mg/ml of fluorescein-labeled dextran (2×10^6 Daltons average molecular weight; Sigma-Aldrich, St. Louis, Mo.) and choroidal flat mounts were examined by fluorescence microscopy. Images were captured with a Nikon Digital Still Camera DXM1200 (Nikon Instruments Inc., New York, N.Y.). Image analysis software (Image-Pro® Plus; Media Cybernetics, Silver Spring, Md.) was used to measure the total area of CNV at each rupture site with the investigator masked with respect to treatment group.

For series [2], the system named is C57BL/6 mice with oxygen-induced ischemic retinopathy. Kind of series: Oxygen-induced ischemic retinopathy, area of retinal NV. It is filed as in vivo, mouse (C57BL/6). The conditions noted are these: five days after administration (P17), vs vehicle. On the procedure:
At P17, the area of retinal NV on the surface of the retina was measured. […] Retinas were dissected, washed, and incubated with goat-anti rat polyclonal antibody conjugated with Alexa 488 (Invitrogen, Carlsbad, Calif.) at 1:500 dilution at room temperature for 45 minutes and flat mounted. An observer masked with respect to treatment group measured the area of NV per retina by image analysis.

In series [3] the test system is Adult C57BL/6 mice. Put plainly: Electroretinograms (ERGs), retinal function after intraocular injection.
Description: For scotopic recordings, mice were dark adapted overnight, and for photopic recordings, mice were adapted for 10 min to background white light at an intensity of 30 cd/m^2. The mice were anesthetized with an intraperitoneal injection of ketamine hydrochloride (100 mg/kg body weight) and xylazine (5 mg/kg body weight). Pupils were dilated with Midrin P containing of 0.5% tropicamide and 0.5% phenylephrine, hydrochloride (Santen Pharmaceutical Co., Osaka, Japan). The mice were placed on a pad heated to 39° C. and platinum loop electrodes were placed on each cornea after application of Gonioscopic prism solution (Alcon Labs, Fort Worth, Tex.). A reference electrode was placed subcutaneously in the anterior scalp between the eyes and a ground electrode was inserted into the tail. The head of the mouse was held in a standardized position in a ganzfeld bowl illuminator that ensured equal illumination of the eyes. Recordings for both eyes were made simultaneously with electrical impedance balanced. Scotopic ERGs were recorded at 11 intensity levels of white light ranging from −3.00 to 1.40 log cd-s/m2. Six measurements were averaged for each flash intensity. Photopic ERGs were recorded at three intensity levels of white light ranging from 0.60 to 1.40 log cd-s/m2 with a 30 cd/m2 background. Five measurements were averaged for each flash intensity.
Series [4] concerns Adult C57BL/6 mice. Put plainly: Outer nuclear layer (ONL) thickness. The series is classed as in vivo, mouse (C57BL/6). Conditions: 0.25 μg intraocular; one week after injection. How it is done:
ONL thickness was measured. […] Mice were euthanized, a mark was placed at 12:00 at the corneal limbus, and eyes were removed and embedded in optimal cutting temperature compound. Ten micrometer frozen sections were cut parallel to the 12:00 or 9:00 meridian through the optic nerve and fixed in 4% paraformaldehyde. The sections were stained with hematoxylin and eosin, examined with an Axioskop microscope (Zeiss, Thornwood, N.Y.), and images were digitized using a three charge-coupled device (CCD) color video camera (IK-TU40A; Toshiba, Tokyo, Japan) and a frame grabber. Image-Pro Plus software (Media Cybernetics, Silver Spring, Md.) was used to outline the ONL.

In series [5] the test system is HIF-1 transcriptional activity and ocular NV. Conditions: intraocular injections of 0.01-0.25 μg; cited from earlier work.
[6] abbreviates: 0.1 μg intraocular after rupture of Bruch's membrane.
The mark [7] stands for this setting: 1.0 μg intraocular after rupture of Bruch's membrane.
[8] abbreviates: 10 μg intraocular after rupture of Bruch's membrane.
[9] abbreviates: 1 μg intraocular, fourteen days after injection.

The values that follow come from patent publication US11660349B2, “Non-linear multiblock copolymer-drug conjugates for the delivery of active agents” (priority 2012, dated 2023).

“Also recorded” adds a separate entry of the source.

`COc1cccc2c1C(=O)c1c(O)c3c(c(O)c1C2=O)C[C@@](O)(C(C)=O)C[C@@H]3O[C@H]1C[C@H](N)[C@H](O)[C@H](C)O1` [DNR, daunorubicin]: the “area of CNV” value is “had no significant effect; also recorded: did not show a statistically significant reduction in the area of CNV” in series [1] (setting [6]), “had no significant effect; also recorded: did not show a statistically significant reduction in the area of CNV” in series [1] (setting [7]) and “suppressed choroidal NV; also recorded: statistically significant reduction in the area of CNV” in series [1] (setting [8]). Besides, the “area of RNV” value in series [2] (0.01 μg intraocular at P12) is listed as “had no significant effect; also recorded: did not show a statistically significant reduction in the area of RNV”; in series [2] (0.1 μg intraocular at P12) it was “caused a small reduction; also recorded: statistically significant reduction in the area of RNV”; in series [2] (1.0 μg intraocular at P12), “markedly reduced the area of retinal NV; also recorded: statistically significant reduction in the area of RNV”. For the same compound, the “mean scotopic and photopic b-wave amplitudes” value in series [3] (setting [9]) was “significant reduction in mean scotopic and photopic b-wave amplitudes”.

Regarding `COc1cccc2c1C(=O)c1c(O)c3c(c(O)c1C2=O)C[C@@](O)(C(=O)CO)C[C@@H]3O[C@H]1C[C@H](N)[C@H](O)[C@H](C)O1` [DXR, doxorubicin], the “area of CNV” value in series [1] (setting [6]) was “did not have a significant effect; also recorded: did not show a statistically significant reduction in the area of CNV”; in series [1] (setting [7]) it was “did not have a significant effect; also recorded: did not show a statistically significant reduction in the area of CNV”; in series [1] (setting [8]), “suppressed choroidal NV; also recorded: statistically significant reduction in the area of CNV”. Moreover, the “area of RNV” value in series [2] (0.01 μg intraocular at P12) is on record as “but not 0.1 or 0.01 μg, significantly reduced the area of retinal NV; also recorded: did not show a statistically significant reduction in the area of RNV”; in series [2] (0.1 μg intraocular at P12), “but not 0.1 or 0.01 μg, significantly reduced the area of retinal NV; also recorded: did not show a statistically significant reduction in the area of RNV”; in series [2] (1.0 μg intraocular at P12) it was “significantly reduced the area of retinal NV; also recorded: statistically significant reduction in the area of RNV”. In addition, the “mean scotopic and photopic b-wave amplitudes” value in series [3] (setting [9]) is “significant reduction in mean scotopic and photopic b-wave amplitudes”.

For `C[C@H]1O[C@@H](O[C@H]2[C@@H](O)C[C@H](O[C@H]3[C@@H](O)C[C@H](O[C@H]4CC[C@@]5(C)[C@H](CC[C@@H]6[C@@H]5C[C@@H](O)[C@]5(C)[C@@H](C7=CC(=O)OC7)CC[C@]65O)C4)O[C@@H]3C)O[C@@H]2C)C[C@H](O)[C@@H]1O` [digoxin], the “outer nuclear layer thickness” value in series [4] is recorded as “reduction in outer nuclear layer thickness at 3 of 6 measurement locations”. In addition, the “HIF-1 transcriptional activity and ocular NV” value in series [5] was “suppress HIF-1 transcriptional activity and ocular NV”. In series [3] (0.05 μg intraocular), the “mean scotopic and photopic b-wave amplitudes” value is “significant reduction in mean scotopic and photopic b-wave amplitudes”. Also, in series [3] (0.25 μg intraocular, one week after injection), the “ERG amplitudes (scotopic a-wave, scotopic b-wave, photopic b-wave)” value was “significant reduction in mean scotopic a-wave amplitude, mean scotopic b-wave amplitude, and mean photopic b-wave amplitude”.
